What is called EC50 is the concentration giving half of the maximal effect. By AUC is commonly meant concentration integrated over time. A word on the clearance: it is the rate of elimination divided by the concentration. Usually MRT stands for a mean duration of stay, worked out from the concentration-time curve.

The text below walks through data of patent US20190144499A1, “PHENYL P[…], AND MANUFACTURING METHOD AND PHARMACEUTICAL APPLICATION THEREOF” (Jiangsu Hengrui Medicine Co., Ltd., priority 2016, published 2019).

In data set [1] the test system is carrageenan inflammatory pain model in rats. As to the kind of experiment: Carrageenan-induced inflammatory pain in rats, plantar tenderness test (electronic Von Frey). It counts as in vivo, Wistar rats. The settings on record: for threshold of tenderness: 30 minutes before detection, 4 hours after carrageenan, model group 7.6 g, blank control about 20 g. As for the experimental part:
A carrageenan inflammatory pain model in rats was established to evaluate the therapeutic effect of KOR agonists on inflammatory pain in rats.
Male Wistar rats were purchased from Shanghai Slac Laboratory Animal Co., Ltd. (Shanghai, China, Certificate No. 2015000513408, License No. SCXK (Shanghai) 2012-0002). The rats were 150-180 g, and fed at 5/cage, in a condition of 12/12 hours light/dark cycle adjustment, constant temperature of 23±1° C., humidity of 50˜60%, and free access to food and water. After purchase, the animals adapted to this condition for 7 days before the experiment was started.
1% λ-Carrageenan was placed in physiological saline, and stirred overnight to form a jelly-like suspension.
The experimental method was modified in accordance with the method of Document 1 (Kazunari Nakao et al.). Before inflammatory pain experiment, rats were randomly divided into the following groups according to body weight: blank control group, model group, Example 5-0.1 mg/kg group, and Example 5-0.3 mg/kg group. There were 8 rats in each group. Inflammatory pain model was made in Wistar rat footpads that were subcutaneously injected with 1% carrageenan (100 μl). After 4 hours, the rats were subjected to a plantar tenderness test to evaluate the mechanical pain threshold. Single tail vein administration of the drug (1 ml/kg) was carried out 30 minutes before detection, and the control group and the model group were given corresponding solvents.
Electronic Von Frey: UGO BASILE, type 38450.
The experimental data were expressed as mean±standard deviation (S.D.). Statistical comparisons were performed using the excel software t test.

For data set [2], the target named is T1, human KOR (h-KOR) receptors (Homo sapiens, UniProt P41145).
T1 construct: expressed in transfected cells
As to the kind of experiment: h-KOR agonist activity test (cAMP/CRE-luciferase reporter in HEK293/h-KOR/CRE cells). It counts as cell-based. The settings on record: Forskolin, 4 hours, luciferase chemiluminescence, read-out: EC50 on agonizing h-KOR receptor and affecting cAMP levels. An excerpt:
The objective of this experiment is to determine the agonistic effect of the compounds of the present invention on human KOR (h-KOR) receptors, and to evaluate the in vitro activity of the compounds according to the values of EC50.
The compounds of the present invention can activate h-KOR receptor, thereby reducing intracellular cAMP levels. The second messenger cAMP enters the nucleus and binds to the CRE of the DNA, thereby initiating the expression of the downstream luciferase. Luciferase reacts with its substrate to emit fluorescence, and the measured fluorescence signals reflect the agonistic activity of the compounds.
The activity of the test example compounds on agonizing h-KOR and affecting downstream cAMP levels was tested by the following method.
KOR/pcDNA3.1 (+) and CRE/pGL4.29 were transferred into HEK293 cells. G418 and hygromycin were added into the culture medium, and HEK293/KOR/CRE monoclonal cell lines were screened in a 96-well cell culture plate.
HEK293/h-KOR/CRE monoclonal cells were cultured in a DMEM/high glucose medium (10% FBS, 1 mg/ml G418, 200 μg/ml hygromycin, mixed uniformly), and passaged every 3 days. On the day of the experiment, a cell suspension was prepared with a fresh cell medium, added to a 96 well plate (BD, #356692) with 20,000 cells/well, and incubated in 5% CO2 at 37° C. On the second day, the compound was dissolved in pure DMSO at a concentration of 20 mM, then formulated with DMSO to a first concentration of 200 nM and diluted in 3 fold concentration gradient to 8 concentrations. 90 μl of DMSO were added to blank and control wells. The compound solution was diluted 20-fold with DMEM/hyperglucose (SH30243.01B, Hyclone) medium containing […]. The cell culture plates inoculated on the first day were taken out, and 10 μl of the diluted drug or the control (0.5% DMSO) was added to each well. The plate was gently shaken, and placed at 37° C. for 4 hours. In a 96-well cell culture plate, 100 μl of luciferase assay solution (Promega, # E6110) was added to each well. The plate was placed for 5 minutes at room temperature. The chemiluminescence value was measured using Victor 3.0. The EC50 values of the compounds were calculated using Graphpad Prism software based on each concentration of the compound and the corresponding signal value.
The activity of the compounds of the present invention on agonizing h-KOR and affecting downstream cAMP levels was determined by the above test, and the EC50 values are shown in Table 1.1.
In general terms: In a reporter assay the amount or activity of a reporter protein is the signal.

Data set [3] in a line: Pharmacokinetics assay in rats after intravenous administration. It is filed as in vivo. The settings on record: both sexes, Sprague-Dawley, rat, plasma, SD rats, 1 mg/kg. The protocol:
Rats were used as test animals. The drug concentration in plasma at different time points was determined by LC/MS/MS after intravenous administration of the compounds of Examples 2, 5 and 8 to the rats. The pharmacokinetic behavior of the compounds of the present invention was studied and evaluated in SD rats.
12 Sprague-Dawley (SD) rats, half male and half female, were purchased from SINO-BRITISH SIPPR/BK LAB. ANIMAL LTD., CO, with License No.: SOCK (Shanghai) 2008-0016.
The appropriate amount of the test compounds was weighed, and added with 5% 5% DMSO+5% PEG400+90% normal saline successively.
After an overnight fast, 12 SD rats, half male and half female, were divided into 3 groups equally, and administered intravenously at a dose of an administration volume of 5 mL/kg.
In the venous group, blood (0.2 mL) was taken from the orbital sinus before administration and 0.25, 0.5, 1.0, 2.0, 4.0, 8.0, 11.0 and 24.0 hours after administration. The samples were stored in heparinized tubes, and centrifuged for 10 minutes at 3,500 rpm to separate the blood plasma. The plasma samples were stored at −20° C.
The concentration of the test compounds in SD rat plasma after intravenous administration was determined by LC-MS/MS.

Data set [4] is described as follows: Pharmacokinetics assay in dogs after intravenous administration. The settings on record: male, dog, plasma, Beagle dogs, 0.3 mg/kg. It is filed as in vivo. As for the experimental part:
Beagle dogs were used as test animals. The drug concentration in plasma at different time points was determined by LC/MS/MS after intravenous administration of the compound of Example 5 to the Beagle dogs. The pharmacokinetic behavior of the compound of the present invention was studied and evaluated in Beagle dogs.
3 Beagle dogs in one group, male, were purchased from Medicilon Pharmaceutical Technology (Shanghai) Co., Ltd.
The appropriate amount of the test compound was weighed, and added with 100% normal saline.
After an overnight fast, 3 Beagle dogs in one group, male, were administered intravenously at a dose of an administration volume of 2 mL/kg.
In the venous group, blood (1 mL) was taken from the jugular vein before administration and 5 minutes, 15 minutes, 0.5, 1.0, 2.0, 4.0, 8.0, 12.0 and 24.0 hours after administration. The samples were stored in heparinized tubes, and centrifuged for 10 minutes at 3,500 rpm to separate the blood plasma. The plasma samples were stored at −80° C.
The concentration of the test compound in Beagle dog plasma after intravenous administration was determined by LC-MS/MS.

Setting [5] is: read-out: Apparent Distribution Volume Vz.
The mark [6] stands for this setting: read-out: Half-Life t1/2 (converted).
Where [7] appears, read: read-out: Mean Residence Time MRT.

T1 sequence (P41145 whole entry): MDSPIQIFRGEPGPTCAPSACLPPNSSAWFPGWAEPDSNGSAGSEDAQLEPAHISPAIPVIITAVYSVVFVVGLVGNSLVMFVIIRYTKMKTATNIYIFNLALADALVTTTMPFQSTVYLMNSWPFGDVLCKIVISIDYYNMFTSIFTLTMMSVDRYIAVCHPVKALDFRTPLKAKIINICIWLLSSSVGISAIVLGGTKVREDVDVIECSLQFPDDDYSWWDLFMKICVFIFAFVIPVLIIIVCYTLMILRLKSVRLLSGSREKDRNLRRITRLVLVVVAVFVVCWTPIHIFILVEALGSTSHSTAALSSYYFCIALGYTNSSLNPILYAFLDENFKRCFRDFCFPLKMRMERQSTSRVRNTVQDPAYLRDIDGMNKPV

On to `CC(C)C[C@@H](NC(=O)[C@@H](Cc1ccccc1)NC(=O)CNC[C@H](C)c1ccccc1)C(=O)N[C@H](CCCCN)C(=O)N1CCC(N)(C(=O)O)CC1` [Example 5, 4-amino-1-((2R,5R,8R,14R)-2-(4-aminobutyl)-8-benzyl-5-isobutyl-4,7,10-trioxo-14-phenyl-3,6,9,12-tetraazapentadecan-1-oyl)piperidine-4-carboxylic Acid], for which the “increase of threshold of tenderness compared with the model group” value in data set [1] (0.1 mg/kg i.v. once) is on record as 79.5%; in data set [1] (0.3 mg/kg i.v. once), 204.5%. Also, the results for the threshold of tenderness in data set [1] (0.1 mg/kg i.v. once) and in data set [1] (0.3 mg/kg i.v. once) were 13.7 g and 23.2 g, respectively. Also, the 50% effective concentration (EC50) in data set [2] was determined as 1 pM. Moreover, the Vd in data set [3] (setting [5]) came to 0.41 ± 0.112 L/kg; in data set [4] (setting [5]), 0.296 ± 0.019 L/kg. Further, the values for the AUC in data set [3] (read-out: Area Under Curve AUC) and in data set [4] (read-out: Area Under Curve AUC) were 1700 ± 363 ng·h/mL and 1980 ± 165 ng·h/mL, respectively. The clearance was 10.1 ± 1.8 mL/min/kg in data set [3] (read-out: Clearance CL) and 2.54 ± 0.21 mL/min/kg in data set [4] (read-out: Clearance CL). Further, the half-life in data set [3] (setting [6]) was 28.1 ± 5.52 min; in data set [4] (setting [6]), 80.4 ± 2.4 min. Besides, the MRT in data set [3] (setting [7]) was found to be 33.4 ± 7.44 min; in data set [4] (setting [7]), 85.8 ± 4.8 min.
